The text below walks through data of patent US10442815B2, “Tricyclic heterocyclic compounds as phosphoinositide 3-kinase inhibitors” (Karus Therapeutics Limited, priority 2015, dated 2019).

In data set [1] the target is T1, PI3K p110δ (Homo sapiens, UniProt O00329).
T1 construct: assay run at Proqinase GmbH
In words: IC50 determination, HTRF biochemical assay (Reaction Biology Corp.). An excerpt:
(§1) Biochemical activity against class I PI3K isoforms was confirmed by either Ki determination using the non-radiometric ADP-Glo™ assay (Promega, Madison, Wis., USA) at Proqinase GmbH, or IC50 determination using the HTRF biochemical assay at Reaction Biology Corp.

Data set [2] has as its target T2, PI3K p110γ (Homo sapiens, UniProt P48736).
T2 construct: assay run at Proqinase GmbH
The description is as above.
Text: as §1

Data set [3] has as its target T3, PI3K p110α (Homo sapiens, UniProt P42336).
T3 construct: assay run at Proqinase GmbH
The description is as above.
Text: as §1

The target of data set [4] is T4, PI3K p110β (Homo sapiens, UniProt P42338).
T4 construct: assay run at Proqinase GmbH
T4 sequence (P42338 whole entry): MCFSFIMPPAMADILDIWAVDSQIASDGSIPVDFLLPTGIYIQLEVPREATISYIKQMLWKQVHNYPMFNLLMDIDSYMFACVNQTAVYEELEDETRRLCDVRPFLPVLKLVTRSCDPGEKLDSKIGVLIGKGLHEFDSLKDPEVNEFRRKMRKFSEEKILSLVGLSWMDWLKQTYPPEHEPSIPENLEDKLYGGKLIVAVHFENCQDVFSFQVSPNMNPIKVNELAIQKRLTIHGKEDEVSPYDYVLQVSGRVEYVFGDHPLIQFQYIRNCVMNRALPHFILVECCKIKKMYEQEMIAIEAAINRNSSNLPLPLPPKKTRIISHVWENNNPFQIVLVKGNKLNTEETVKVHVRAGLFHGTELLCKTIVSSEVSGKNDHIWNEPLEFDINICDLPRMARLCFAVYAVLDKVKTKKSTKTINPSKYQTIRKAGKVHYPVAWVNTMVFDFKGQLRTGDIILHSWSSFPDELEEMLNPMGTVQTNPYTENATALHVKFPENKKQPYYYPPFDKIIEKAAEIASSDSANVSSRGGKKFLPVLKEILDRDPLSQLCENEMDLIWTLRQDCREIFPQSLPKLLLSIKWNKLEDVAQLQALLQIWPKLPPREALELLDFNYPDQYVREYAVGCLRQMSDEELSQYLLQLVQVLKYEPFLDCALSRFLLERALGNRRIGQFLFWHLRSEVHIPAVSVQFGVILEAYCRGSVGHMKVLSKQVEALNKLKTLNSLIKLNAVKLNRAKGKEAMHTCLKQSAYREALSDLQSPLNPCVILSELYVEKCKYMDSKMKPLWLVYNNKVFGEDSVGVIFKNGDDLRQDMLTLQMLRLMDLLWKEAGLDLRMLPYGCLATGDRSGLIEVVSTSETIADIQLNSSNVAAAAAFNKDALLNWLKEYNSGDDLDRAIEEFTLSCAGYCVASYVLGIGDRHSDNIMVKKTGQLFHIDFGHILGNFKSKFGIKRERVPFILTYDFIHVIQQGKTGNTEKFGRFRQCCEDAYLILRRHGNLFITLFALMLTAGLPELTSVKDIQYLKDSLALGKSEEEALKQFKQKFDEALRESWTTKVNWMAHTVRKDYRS
T4 sequence (P27986 whole entry partner): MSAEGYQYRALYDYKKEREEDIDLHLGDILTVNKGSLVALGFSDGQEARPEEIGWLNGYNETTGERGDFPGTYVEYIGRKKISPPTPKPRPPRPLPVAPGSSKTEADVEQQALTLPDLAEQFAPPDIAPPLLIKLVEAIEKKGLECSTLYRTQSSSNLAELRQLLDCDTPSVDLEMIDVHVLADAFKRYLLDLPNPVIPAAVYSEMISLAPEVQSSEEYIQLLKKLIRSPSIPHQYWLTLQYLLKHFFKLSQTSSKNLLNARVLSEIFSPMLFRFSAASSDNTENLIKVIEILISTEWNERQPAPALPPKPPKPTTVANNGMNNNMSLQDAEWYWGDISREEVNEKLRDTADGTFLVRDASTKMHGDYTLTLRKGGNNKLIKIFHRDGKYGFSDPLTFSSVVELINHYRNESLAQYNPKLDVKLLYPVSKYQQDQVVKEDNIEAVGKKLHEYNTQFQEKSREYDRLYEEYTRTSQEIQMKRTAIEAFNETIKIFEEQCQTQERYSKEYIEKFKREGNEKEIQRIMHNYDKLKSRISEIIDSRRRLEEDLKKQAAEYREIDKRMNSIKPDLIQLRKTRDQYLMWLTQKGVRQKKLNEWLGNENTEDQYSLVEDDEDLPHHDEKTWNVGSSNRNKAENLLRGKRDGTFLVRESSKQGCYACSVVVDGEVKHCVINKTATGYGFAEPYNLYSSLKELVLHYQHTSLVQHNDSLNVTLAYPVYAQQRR
The description is as above.
Text: as §1

The nature of data set [5]: Plasma PK of Example B, oral bioavailability and clearance in male Balb/c mice. Format: in vivo, mouse. Particulars: Mesylate Salt. How it is done: Animals in Group 2 were administered with oral solution formulation of Example B in 5% NMP, 5% Solutol HS and 90% of 20% HPβCD at a dose of 10 mg/kg. Dosing: 10 mg/kg P.O. and 3 mg/kg I.V.
In data set [6] the target is T1, PI3K p110δ. The experiment in a line: Ki determination, non-radiometric ADP-Glo assay (Proqinase GmbH). Format: biochemical.
Text: as §1
Background: In ADP-Glo the light output rises with the ADP produced.

Data set [7] has as its target T2, PI3K p110γ. The data set is described as above. Format: biochemical.
Text: as §1

Data set [8] has as its target T3, PI3K p110α. Described as above. Format: biochemical.
Text: as §1

For data set [9], the target named is T4, PI3K p110β. The data set is described as above. Format: biochemical.
Text: as §1

Data set [10] in a line: Plasma PK of compound K of WO 2011/021038 in male Balb/c mice. The settings on record: for F: PO 10 mg/kg vs IV 3 mg/kg, male Balb/c mouse. In kind it is in vivo, mouse. The method, then:
Animals in Group 1 were administered intravenously with compound K solution formulation in 5% NMP, 5% solutol HS-15 and 90% normal saline via tail vein at a dose of 3 mg/kg.
Animals in Group 2 were administered with oral solution formulation of compound K in 5% NMP, 5% solutol HS-15 and 90% normal saline at a dose of 10 mg/kg;
Dosing: 10 mg/kg P.O. and 3 mg/kg I.V.

The mark [11] stands for this setting: IV, 3 mg/kg, male Balb/c mouse plasma.
[12] abbreviates: IV, 3 mg/kg, male Balb/c mouse plasma, read-out: Vss.
The mark [13] stands for this setting: PO, 10 mg/kg, male Balb/c mouse plasma.

SMILES strings stand for the structures.

T1 sequence (O00329 whole entry): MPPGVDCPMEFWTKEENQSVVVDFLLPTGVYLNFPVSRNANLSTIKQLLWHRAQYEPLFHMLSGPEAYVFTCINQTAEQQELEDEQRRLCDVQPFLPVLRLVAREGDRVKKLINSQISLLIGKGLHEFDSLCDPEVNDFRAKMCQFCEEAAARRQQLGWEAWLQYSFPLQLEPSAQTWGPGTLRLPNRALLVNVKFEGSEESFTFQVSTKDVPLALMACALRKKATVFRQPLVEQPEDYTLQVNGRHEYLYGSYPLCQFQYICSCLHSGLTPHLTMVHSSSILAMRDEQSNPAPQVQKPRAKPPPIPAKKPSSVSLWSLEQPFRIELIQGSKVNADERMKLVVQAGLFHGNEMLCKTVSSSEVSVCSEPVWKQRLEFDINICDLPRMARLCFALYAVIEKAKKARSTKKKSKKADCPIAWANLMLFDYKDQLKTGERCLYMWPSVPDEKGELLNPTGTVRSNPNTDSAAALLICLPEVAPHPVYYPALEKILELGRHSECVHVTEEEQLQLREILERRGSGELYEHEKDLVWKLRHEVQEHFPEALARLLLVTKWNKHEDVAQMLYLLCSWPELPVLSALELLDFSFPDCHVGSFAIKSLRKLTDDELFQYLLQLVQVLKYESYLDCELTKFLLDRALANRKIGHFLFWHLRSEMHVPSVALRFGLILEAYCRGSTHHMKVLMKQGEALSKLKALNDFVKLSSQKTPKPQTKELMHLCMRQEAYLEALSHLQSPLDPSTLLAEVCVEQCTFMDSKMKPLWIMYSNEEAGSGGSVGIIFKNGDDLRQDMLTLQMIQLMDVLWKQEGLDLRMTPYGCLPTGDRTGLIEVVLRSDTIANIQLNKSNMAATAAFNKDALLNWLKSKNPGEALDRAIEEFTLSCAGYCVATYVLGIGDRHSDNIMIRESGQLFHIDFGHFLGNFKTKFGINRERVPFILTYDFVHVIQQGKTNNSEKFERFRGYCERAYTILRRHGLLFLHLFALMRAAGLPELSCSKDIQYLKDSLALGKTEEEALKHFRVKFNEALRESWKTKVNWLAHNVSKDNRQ
T1 sequence (P27986 whole entry partner): as the sequence (P27986 whole entry partner) above
T2 sequence (P48736 whole entry): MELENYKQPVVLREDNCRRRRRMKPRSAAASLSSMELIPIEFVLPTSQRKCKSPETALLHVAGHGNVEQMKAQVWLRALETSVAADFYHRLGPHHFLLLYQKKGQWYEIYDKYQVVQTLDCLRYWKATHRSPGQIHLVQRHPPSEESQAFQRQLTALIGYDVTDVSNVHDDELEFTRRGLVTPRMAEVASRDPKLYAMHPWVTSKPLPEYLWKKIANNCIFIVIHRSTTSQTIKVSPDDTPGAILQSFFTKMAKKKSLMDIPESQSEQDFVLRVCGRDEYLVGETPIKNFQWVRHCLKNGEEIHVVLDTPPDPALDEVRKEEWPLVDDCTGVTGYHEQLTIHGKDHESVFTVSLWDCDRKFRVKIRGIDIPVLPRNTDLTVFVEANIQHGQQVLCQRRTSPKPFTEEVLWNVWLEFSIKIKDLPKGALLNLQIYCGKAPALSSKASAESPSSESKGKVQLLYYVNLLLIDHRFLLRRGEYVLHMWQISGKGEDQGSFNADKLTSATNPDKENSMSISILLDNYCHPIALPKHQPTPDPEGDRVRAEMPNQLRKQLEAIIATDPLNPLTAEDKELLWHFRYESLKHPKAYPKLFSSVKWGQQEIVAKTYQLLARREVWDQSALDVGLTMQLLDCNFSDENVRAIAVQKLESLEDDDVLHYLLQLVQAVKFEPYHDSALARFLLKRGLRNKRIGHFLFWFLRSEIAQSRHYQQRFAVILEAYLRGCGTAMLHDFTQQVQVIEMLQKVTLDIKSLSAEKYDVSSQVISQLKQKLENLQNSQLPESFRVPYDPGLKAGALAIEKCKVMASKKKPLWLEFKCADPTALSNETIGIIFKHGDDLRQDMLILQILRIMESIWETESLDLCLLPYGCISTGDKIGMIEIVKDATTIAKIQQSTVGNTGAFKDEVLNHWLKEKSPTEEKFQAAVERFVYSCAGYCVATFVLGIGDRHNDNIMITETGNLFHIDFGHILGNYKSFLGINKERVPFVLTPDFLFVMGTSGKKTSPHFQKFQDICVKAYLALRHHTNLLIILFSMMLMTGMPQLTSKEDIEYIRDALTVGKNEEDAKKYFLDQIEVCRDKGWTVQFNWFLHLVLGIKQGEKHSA
T3 sequence (P42336 whole entry): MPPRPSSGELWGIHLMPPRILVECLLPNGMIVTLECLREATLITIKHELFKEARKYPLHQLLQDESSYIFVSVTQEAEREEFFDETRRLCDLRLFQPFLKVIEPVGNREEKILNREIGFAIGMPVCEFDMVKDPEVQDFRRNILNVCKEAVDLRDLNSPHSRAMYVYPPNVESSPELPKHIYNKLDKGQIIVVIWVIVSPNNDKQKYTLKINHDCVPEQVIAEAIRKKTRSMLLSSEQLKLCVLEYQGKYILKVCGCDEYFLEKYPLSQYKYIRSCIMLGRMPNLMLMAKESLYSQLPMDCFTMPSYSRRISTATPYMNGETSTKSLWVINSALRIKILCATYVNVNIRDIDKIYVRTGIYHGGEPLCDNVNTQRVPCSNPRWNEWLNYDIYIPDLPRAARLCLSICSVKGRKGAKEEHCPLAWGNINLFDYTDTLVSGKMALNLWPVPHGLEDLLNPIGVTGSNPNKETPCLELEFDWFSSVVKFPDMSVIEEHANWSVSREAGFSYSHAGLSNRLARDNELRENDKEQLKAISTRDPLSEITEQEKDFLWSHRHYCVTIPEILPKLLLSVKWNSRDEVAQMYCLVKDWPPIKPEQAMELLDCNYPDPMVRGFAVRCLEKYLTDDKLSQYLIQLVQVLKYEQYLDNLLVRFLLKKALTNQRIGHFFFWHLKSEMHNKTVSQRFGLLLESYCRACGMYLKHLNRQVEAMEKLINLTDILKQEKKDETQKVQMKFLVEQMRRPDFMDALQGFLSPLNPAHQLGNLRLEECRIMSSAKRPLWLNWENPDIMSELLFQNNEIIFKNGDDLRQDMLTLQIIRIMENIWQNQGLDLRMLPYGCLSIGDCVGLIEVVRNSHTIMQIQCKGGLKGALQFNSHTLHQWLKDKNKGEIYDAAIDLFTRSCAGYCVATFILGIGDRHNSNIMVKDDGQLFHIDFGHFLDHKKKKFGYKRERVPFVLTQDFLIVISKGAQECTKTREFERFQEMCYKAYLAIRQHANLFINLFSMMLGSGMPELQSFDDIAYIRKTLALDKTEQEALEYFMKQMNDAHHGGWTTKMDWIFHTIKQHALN
T3 sequence (P27986 whole entry partner): as the sequence (P27986 whole entry partner) above

On to `O=S1(=O)CCCN(Cc2cnc3oc4c(N5CCOCC5)nc(-c5cccc6[nH]ccc56)nc4c3c2)CC1` [Example AA, 4-{[4-(1H-indol-4-yl)-6-(morpholin-4-yl)-8-oxa-3,5,10-triazatricyclo[7.4.0.0^2,^7]trideca-1(13),2(7),3,5,9,11-hexaen-12-yl]methyl}-1λ^6,4-thiazepane-1,1-dione], for which the IC50 (commonly the concentration that inhibits the measured activity by half) at PI3K p110δ [1] was at most 500 nM; on PI3K p110γ [2] it was 500 to 1000 nM; on PI3K p110α [3], at most 500 nM; against PI3K p110β [4] it was at most 500 nM.

Regarding `O=S1(=O)CC2(CN(Cc3cnc4oc5c(N6CCOCC6)nc(-c6cccc7[nH]ccc67)nc5c4c3)C2)C1` [Example AB, 6-{[4-(1H-Indol-4-yl)-6-(morpholin-4-yl)-8-oxa-3,5,10-triazatricyclo[7.4.0.0^2^,7]trideca-1(13),2(7),3,5,9,11-hexaen-12-yl]methyl}-2λ^6-thia-6-azaspiro[3.3]heptane-2,2-dione], the IC50 was at most 500 nM on PI3K p110δ [1], 500 to 1000 nM against PI3K p110γ [2], at most 500 nM on PI3K p110α [3] and at most 500 nM against PI3K p110β [4].

As for `c1cc(-c2nc(N3CCOCC3)c3oc4ncc(CN5CCSC5)cc4c3n2)c2cc[nH]c2c1` [Example AC, 4-(1H-Indol-4-yl)-6-(morpholin-4-yl)-12-[(1,3-thiazolidin-3-yl)methyl]-8-oxa-3,5,10-triazatricyclo[7.4.0.0^2^,7]trideca-1(13),2(7),3,5,9,11-hexaene], the concentration for half-maximal inhibition (IC50) on PI3K p110δ [1], at PI3K p110γ [2], against PI3K p110α [3] and against PI3K p110β [4] was at most 500 nM throughout.

As to `[O-][S+]1CCN(Cc2cnc3oc4c(N5CCOCC5)nc(-c5cccc6[nH]ccc56)nc4c3c2)CC1` [Example B, 4-{[4-(1H-Indol-4-yl)-6-(morpholin-4-yl)-8-oxa-3,5,10-triazatricyclo[7.4.0.0^2,7]trideca-1(13),2(7),3,5,9,11-hexaen-12-yl]methyl}-1λ^4-thiomorpholin-1-one], in data set [5] (setting [11]), the AUC(0-inf) (as a rule, total exposure, with the tail of the curve extrapolated) was found to be 2940 ng·h/mL; the AUClast was determined as 2802.91 ng·mL·h; the Cmax (as a rule, the maximum level reached in the sampled fluid or tissue) amounted to 5320 ng/mL; the clearance is 17 mL/min/kg. The half-life (usually the time in which the quantity being followed falls by half) in data set [5] (setting [11]) was 206 min. Besides, in data set [5] (setting [12]), the Vd came out at 1.44 L/kg. In [5] (setting [13]), the AUC(0-inf) came out at 7700 ng·h/mL; the AUC(0-t) – broadly, the area under the concentration-time curve up to a stated or last time point – was found to be 7690 ng·h/mL; the Cmax amounted to 3830 ng/mL; the Tmax (usually the time from dosing to the highest level) was found to be 30 min. Besides, the bioavailability (commonly dose-corrected exposure relative to a reference, in per cent) in [5] (plasma, PO 10 mg/kg vs IV 3 mg/kg, male Balb/c mouse) came to 82%. On PI3K p110δ [6], the Ki (commonly the dissociation constant of the complex between target and ligand, obtained from inhibition or displacement) was at most 500 nM. Further, the Ki on PI3K p110γ [7] fell in the range of 1000 to 10000 nM. Further, on PI3K p110α [8], the Ki is 500 to 1000 nM. At PI3K p110β [9], the Ki was at most 500 nM.

On to `N#Cc1cc(-c2nc(N3CCOCC3)c3oc4ncc(CN5CC[S+]([O-])CC5)cc4c3n2)c2cc[nH]c2c1` [Example R, 4-[6-(morpholin-4-yl)-12-[(1-oxo-1λ^4-thiomorpholin-4-yl)methyl]-8-oxa-3,5,10-triazatricyclo[7.4.0.0^2,^7]trideca-1(13),2(7),3,5,9,11-hexaen-4-yl]-1H-indole-6-carbonitrile], for which the Ki at PI3K p110δ [6], on PI3K p110γ [7], at PI3K p110α [8] and at PI3K p110β [9] was over 10000 nM in each case.

On to `[O-][S+]1CCN(Cc2cnc3oc4c(N5CCOCC5)nc(-c5c(Cl)ccc6[nH]ccc56)nc4c3c2)CC1` [Example T, 4-{[4-(5-Chloro-1H-indol-4-yl)-6-(morpholin-4-yl)-8-oxa-3,5,10-triazatricyclo[7.4.0.0^2,7]trideca-1(9),2,4,6,10,12-hexaen-12-yl]methyl}-1λ^4-thiomorpholin-1-one], for which the Ki on PI3K p110δ [6] was at most 500 nM; on PI3K p110γ [7] it was over 10000 nM; at PI3K p110α [8], 1000 to 10000 nM; at PI3K p110β [9], at most 500 nM.

As to `[O-][S+]1CCN(Cc2cnc3oc4c(N5CCOCC5)nc(-c5c(Cl)ccc6c5CCN6)nc4c3c2)CC1` [Example U, 4-{[4-(5-Chloro-2,3-dihydro-1H-indol-4-yl)-6-(morpholin-4-yl)-8-oxa-3,5,10-triazatricyclo[7.4.0.0^2,7]trideca-1(9),2,4,6,10,12-hexaen-12-yl]methyl}-1λ^4-thiomorpholin-1-one], the Ki on PI3K p110δ [6] was at most 500 nM; on PI3K p110γ [7] it was over 10000 nM; on PI3K p110α [8], over 10000 nM; at PI3K p110β [9], 1000 to 10000 nM.

`Cc1ccc2c(c1-c1nc(N3CCOCC3)c3oc4ncc(CN5CC[S+]([O-])CC5)cc4c3n1)CCN2` [Example V, 4-{[4-(5-Methyl-2,3-dihydro-1H-indol-4-yl)-6-(morpholin-4-yl)-8-oxa-3,5,10-triazatricyclo[7.4.0.0^2,7]trideca-1(9),2,4,6,10,12-hexaen-12-yl]methyl}-1λ^4-thiomorpholin-1-one]: the Ki was at most 500 nM on PI3K p110δ [6], over 10000 nM on PI3K p110γ [7], over 10000 nM on PI3K p110α [8] and 1000 to 10000 nM on PI3K p110β [9].

In the case of `N#Cc1ccc2[nH]ccc2c1-c1nc(N2CCOCC2)c2oc3ncc(CN4CC[S+]([O-])CC4)cc3c2n1` [Example W, 4-[6-(morpholin-4-yl)-12-[(1-oxo-1λ^4-thiomorpholin-4-yl)methyl]-8-oxa-3,5,10-triazatricyclo[7.4.0.0^2,^7]trideca-1(9),2,4,6,10,12-hexaen-4-yl]-1H-indole-5-carbonitrile], the Ki is at most 500 nM on PI3K p110δ [6], over 10000 nM on PI3K p110γ [7], at most 500 nM at PI3K p110α [8] and at most 500 nM on PI3K p110β [9].

Take `O=C(O)c1ccc2[nH]ccc2c1-c1nc(N2CCOCC2)c2oc3ncc(CN4CC[S+]([O-])CC4)cc3c2n1` [Example X, 4-[6-(morpholin-4-yl)-12-[(1-oxo-1λ^4-thiomorpholin-4-yl)methyl]-8-oxa-3,5,10-triazatricyclo[7.4.0.0^2,^7]trideca-1(13),2(7),3,5,9,11-hexaen-4-yl]-1H-indole-5-carboxylic acid]: the Ki on PI3K p110δ [6], on PI3K p110γ [7], on PI3K p110α [8] and on PI3K p110β [9] was over 10000 nM in each case.

`CC(C)Oc1ccc2[nH]ccc2c1-c1nc(N2CCOCC2)c2oc3ncc(CN4CC[S+]([O-])CC4)cc3c2n1` [Example Y, 4-{[6-(Morpholin-4-yl)-4-[5-(propan-2-yloxy)-1H-indol-4-yl]-8-oxa-3,5,10-triazatricyclo[7.4.0.0^2^,7]trideca-1(9),2,4,6,10,12-hexaen-12-yl]methyl}-1λ^4-thiomorpholin-1-one]: the Ki was at most 500 nM at PI3K p110δ [6], 1000 to 10000 nM on PI3K p110γ [7], 500 to 1000 nM on PI3K p110α [8] and at most 500 nM at PI3K p110β [9].

Turning to `[O-][S+]1CCN(Cc2cnc3oc4c(N5CCOCC5)nc(-c5c(OC(F)(F)F)ccc6[nH]ccc56)nc4c3c2)CC1` [Example Z, 4-{[6-(Morpholin-4-yl)-4-[5-(trifluoromethoxy)-1H-indol-4-yl]-8-oxa-3,5,10-triazatricyclo[7.4.0.0^2^,7]trideca-1(9),2,4,6,10,12-hexaen-12-yl]methyl}-1λ^4-thiomorpholin-1-one], the Ki at PI3K p110δ [6] is at most 500 nM; at PI3K p110γ [7], 500 to 1000 nM; at PI3K p110α [8], at most 500 nM; on PI3K p110β [9], at most 500 nM.

In [10] (setting [11]), `c1cc(-c2nc(N3CCOCC3)c3oc4ncc(CN5CCOCC5)cc4c3n2)c2cc[nH]c2c1` [compound K in WO 2011/021038] gave an AUC(0-inf) of 2690 ng·h/mL, an AUClast of 2654.15 ng·mL·h, a Cmax of 2980 ng/mL and a clearance of 18.6 mL/min/kg. For the same molecule, the half-life in [10] (setting [11]) was 79.8 min. Further, the Vd in data set [10] (setting [12]) came out at 1.81 L/kg. This molecule displayed a F in data set [10] of 55%. In data set [10] (listed as Example K from W02011/021038 (comparative)), the F is given as 50%. Further, in data set [10] (setting [13]), the AUC(0-inf) is 5140 ng·h/mL, the AUC(0-t) was 4890 ng·h/mL, the Cmax was 1720 ng/mL and the Tmax turned out to be 15 min.
